Data set [1] deals with SIRT2 recombinant protein (Homo sapiens (Human), UniProt Q8IXJ6). The experiment in a line: In vitro activity screening of SIRT2 inhibitors (fluorogenic Ac-Gln-Pro-Lys-[Lys-(Ac)]-AMC peptide deacetylation assay). Type of data set: biochemical. To be noted: recombinant SIRT2 1.0 μg, 500 μM NAD+, 50 μM substrate peptide, 37° C. 2 hours. The source says:
In vitro activity screening of SIRT2 inhibitors:
The full-length expression sequence ORF of the human SIRT2 gene is 1170 bp (Accession No.: NM_012237), and the molecular mass of the expressed SIRT2 protein is 43 KDa. The SIRT2 recombinant protein is expressed and purified according to the following steps: the SIRT2 gene was cloned into the expression vector pET-15b (primers were shown as follows: forward: 5 ? -[…]-3 ? (SEQ ID NO. 1); backward: 5 ? -[…]-3 ? (SEQ ID NO. 2)), and the expressed SIRT2 protein contained His6-tag at the N-terminus for purification. The plasmid was transformed into E. coli […], and expressed for 6 h at 18° C. with 1 mM IPTG induction. The induced E. coli cells were collected by centrifugation and frozen at −20° C. Bacterial pellet was re-suspended in 15 mL of cell lysis buffer (50 mM Tris-HCl pH 8.0, 300 mM NaCl), and the bacterial sample was disrupted by sonication for 10 min, and then centrifuged (12000×g, 20 min) at 4° C. to remove the precipitates.
The supernatant was purified by Ni^2+ NTA-agarose matrix column (Qiagen). In the purification process, the unbound proteins were first washed away with the loading buffer (50 mM Tris-HCl pH 8.0, 300 mM NaCl), subsequently, the non-specifically bound proteins were washed away by gradually increasing the concentration of imidazole (0-200 mM), and finally the purified recombinant SIRT2 protein was obtained. Imidazole was removed using a PD-10 column and the concentration of purified SIRT2 protein was determined by the Bradford method. The recombinant SIRT2 protein was stored at −20° C. in a preservation buffer (50 mM Tris-HCl, pH 8.0, 265 mM NaCl, 0.2 mM DTT, and 10% glycerol).
The SIRT2 enzyme activity assay is established based on the published studies. Firstly, peptide segment Ac-Gln-Pro-Lys-[Lys-(Ac)]-AMC, the substrate of SIRT2, was synthesized to serve as a substrate in the enzyme activity assay. The attached fluorescent label was AMC (7-Amino-4-methylcoumarin). […] The reaction was carried out at 37° C. for 2 hours. […] Afterwards, 60 μL of sample treating solution (50 mM Tris-HCl, pH 8.0, 100 mM NaCl, Trypsin and 4 mM nicotinamide) was added to the reaction solution and mixed, and placed at 37° C. for 20 min. Absorption intensity was measured by the enzyme-labeled instrument configured as an excitation light of 355 nm and an absorption light of 460 nm.

Data set [2] has as its system SH-SY5Y cells damaged by neurotoxicant MPP+. As to the kind of experiment: Protective activity on Parkinson's disease cell model (MPP+ treated SH-SY5Y, cell viability). Type of data set: cell-based. To be noted: compound 10 μM, MPP+ 5 mM, 48 h; FIG. 1. As to the method:
Screening for compounds with protective activity on Parkinson ? s disease cell model:
For the screening test for protective effects on the Parkinson ? s disease cell model, the commonly recognized neurotoxicant MPP^+ (5 mM) is used on the neuroblastoma cell SH-SY5Y to construct the Parkinson ? s disease cell model. This neurotoxicant acts on the SH-SY5Y cell, induces abnormal accumulation of α-synuclein in the cells and causes Parkinson ? s disease-like neurotoxicity. The specific test method is as follows: approximately 20000 SH-SY5Y cells were grown in a 96-well cell plate and cultured overnight. […] The cell viability of the Parkinson ? s disease cell model was determined to assess the protective effects of the compounds on the Parkinson ? s cell model. The test data were analyzed by using GraphPad Prism.

The subject of data set [3] is neuroblastoma cell SH-SY5Y. As to the kind of experiment: Cytotoxicity assay for neuroblastoma cell SH-SY5Y (AlamarBlue). Type of data set: cell-based. To be noted: 48 hours incubation. As to the method:
(§1) Cytotoxicity assay of compounds for neuroblastoma cell SH-SY5Y:
(§2) This testing example investigates the cytotoxicity of compounds against neuroblastoma cell SH-SY5Y, in order to determine the dose for the Parkinson ? s cell model protection assay in the next step. For the cytotoxicity assay, the specific test steps are as follows: the cultured neuroblastoma cell SH-SY5Y was grown in a 96-well cell culture plate with approximately 6000 cells per well. After overnight incubation, the culture medium was exchanged for a new one, and each well was added with different concentrations of Compounds 1-18 ([…], 10, 20, 50, 100, 200 μM), and different control samples were arranged. The cells were continued to be incubated at 37° C. for 48 hours. Each well was added with 10 μL of the dye AlamarBlue® (Invitrogen), and the cells were continued to be incubated at 37° C. for approximately 2 hours and then a color change of the staining solution could be observed; the change of absorption values was obtained on the enzyme-labeled instrument (Ex: 530 nm; Em: 590 nm). In the assay, there were 2 parallel tests for each compound with each concentration. The results were processed with software GraphPad Prism to calculate the cytotoxicity CC50 of each compound. The results are shown in Table 2 (in which Taxol is the positive control group).
For orientation: Resazurin is reduced to fluorescent resorufin, in cell work by metabolically active cells.

Assay in data set [4]: as above
Type of data set: cell-based. To be noted: human, SH-SY5Y neuroblastoma cells, 48 hours incubation. As for the experimental part: as §1, §2

Usually IC50 stands for the concentration at which inhibition is half-maximal.

Chain of SIRT2 recombinant protein (Q8IXJ6 whole entry): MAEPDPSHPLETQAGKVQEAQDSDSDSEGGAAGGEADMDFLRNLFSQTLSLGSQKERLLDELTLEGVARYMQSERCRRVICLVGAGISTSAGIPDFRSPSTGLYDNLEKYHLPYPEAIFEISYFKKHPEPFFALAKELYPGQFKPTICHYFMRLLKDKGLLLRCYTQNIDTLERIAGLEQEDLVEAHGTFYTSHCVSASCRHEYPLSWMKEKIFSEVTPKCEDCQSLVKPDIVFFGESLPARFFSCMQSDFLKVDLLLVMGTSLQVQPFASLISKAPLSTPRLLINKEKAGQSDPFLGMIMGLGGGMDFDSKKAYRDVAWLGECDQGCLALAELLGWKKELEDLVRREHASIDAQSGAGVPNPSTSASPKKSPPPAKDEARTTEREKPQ

With `O=C(Nc1ccnc(S(=O)(=O)Nc2ccc(Cl)cc2)c1)c1cccc2ccc(=O)oc12` [Compound 1, N-(2-(N-(4-chlorophenyl)aminosulfonyl)-pyridin-4-yl)-2-oxo-2H-chromene-8-amide], in data set [1], the IC50 came out at 86 nM. In data set [2], the “protective effect against SH-SY5Y cell damage by MPP+ (cell viability)” value (from here on “protective effect”) is “more obvious protective effects”. For the same compound, in data set [3], the CC50 is recorded as over 20 μmol[…]L^−1.
On to `O=C(Nc1ccnc(S(=O)(=O)Nc2cccc(Cl)c2)c1)c1cccc2ccc(=O)oc12` [Compound 2, N-(2-(N-(3-chlorophenyl)aminosulfonyl)-pyridin-4-yl)-2-oxo-2H-chromene-8-amide], for which the concentration for half-maximal inhibition (IC50) in data set [1] was 359 nM. In data set [3], this compound registered a CC50 of over 20 μmol[…]L^−1.
On the same counts, the results for `O=C(Nc1ccnc(S(=O)(=O)Nc2ccccc2Cl)c1)c1cccc2ccc(=O)oc12` [Compound 3, N-(2-(N-(2-chlorophenyl)aminosulfonyl)-pyridin-4-yl)-2-oxo-2H-chromene-8-amide] are 1230 nM and over 20 μmol[…]L^−1.
Regarding `Cc1ccc(NS(=O)(=O)c2cc(NC(=O)c3cccc4ccc(=O)oc34)ccn2)cc1` [Compound 4, N-(2-(N-(4-methylphenyl)aminosulfonyl)-pyridin-4-yl)-2-oxo-2H-chromene-8-amide], in data set [1], the IC50 stood at 356 nM. This compound had a CC50 in data set [3] of over 20 μmol[…]L^−1.
`O=C(Nc1ccnc(S(=O)(=O)Nc2cccc([N+](=O)[O-])c2)c1)c1cccc2ccc(=O)oc12` [Compound 5, N-(2-(N-(3-nitrophenyl)aminosulfonyl)-pyridin-4-yl)-2-oxo-2H-chromene-8-amide]: the IC50 in data set [1] amounted to 180 nM. The compound also came in with a CC50 in data set [3] of over 20 μmol[…]L^−1.
In the case of `N#Cc1ccccc1NS(=O)(=O)c1cc(NC(=O)c2cccc3ccc(=O)oc23)ccn1` [Compound 6, N-(2-(N-(2-cyanophenyl)aminosulfonyl)-pyridin-4-yl)-2-oxo-2H-chromene-8-amide], the half-maximal inhibitory concentration (IC50) in data set [1] stood at 1700 nM. The same compound yielded a CC50 in data set [3] of over 20 μmol[…]L^−1.
As for `O=C(Nc1ccnc(S(=O)(=O)Nc2ccc(F)cc2)c1)c1cccc2ccc(=O)oc12` [Compound 7, N-(2-(N-(4-fluorophenyl)aminosulfonyl)-pyridin-4-yl)-2-oxo-2H-chromene-8-amide], in data set [1], the IC50 was found to be 120 nM. Besides, the CC50 in data set [3] is reported as over 20 μmol[…]L^−1.
With `CS(=O)(=O)c1ccc(NS(=O)(=O)c2cc(NC(=O)c3cccc4ccc(=O)oc34)ccn2)cc1` [Compound 8, N-(2-(N-(4-methylsulfonylphenyl)aminosulfonyl)-pyridin-4-yl)-2-oxo-2H-chromene-8-amide], in data set [1], the IC50 was 896 nM. Also, the CC50 in data set [3] is reported as over 20 μmol[…]L^−1.
Take `O=C(Nc1ccnc(S(=O)(=O)Nc2ccc(C(F)(F)F)cc2)c1)c1cccc2ccc(=O)oc12` [Compound 9, N-(2-(N-(4-trifluoromethylphenyl)aminosulfonyl)-pyridin-4-yl)-2-oxo-2H-chromene-8-amide]: in data set [1], the half-inhibitory concentration (IC50) stood at 90 nM. The CC50 in data set [3] was over 20 μmol[…]L^−1.
As for `O=C(Nc1ccnc(S(=O)(=O)Nc2ccc(-c3ccccc3)cc2)c1)c1cccc2ccc(=O)oc12` [Compound 10, N-(2-(N-(4-phenylphenyl)aminosulfonyl)-pyridin-4-yl)-2-oxo-2H-chromene-8-amide], the half-inhibitory concentration (IC50) in data set [1] turned out to be 652 nM. This compound also yielded a CC50 in data set [3] of over 20 μmol[…]L^−1.
The matching figures for `O=C(Nc1ccnc(S(=O)(=O)Nc2ccc(O)cc2)c1)c1cccc2ccc(=O)oc12` [Compound 11, N-(2-(N-(4-hydroxyphenyl)aminosulfonyl)-pyridin-4-yl)-2-oxo-2H-chromene-8-amide]: 896 nM and over 20 μmol[…]L^−1.
On the same counts, the results for `COc1ccc(NS(=O)(=O)c2cc(NC(=O)c3cccc4ccc(=O)oc34)ccn2)cc1` [Compound 12, N-(2-(N-(4-methoxylphenyl)aminosulfonyl)-pyridin-4-yl)-2-oxo-2H-chromene-8-amide] are 2360 nM and over 20 μmol[…]L^−1.
In the case of `O=C(Nc1ccnc(S(=O)(=O)Nc2ccc(F)c(F)c2)c1)c1cccc2ccc(=O)oc12` [Compound 13, N-(2-(N-(3,4-difluorophenyl)aminosulfonyl)-pyridin-4-yl)-2-oxo-2H-chromene-8-amide], the IC50 in data set [1] was 80 nM. In data set [2], the “protective effect” value is “more obvious protective effects”. The same compound displayed a CC50 in data set [3] of over 20 μmol[…]L^−1.
Consider `O=C(Nc1ccnc(S(=O)(=O)Nc2ccc(Cl)c(Br)c2)c1)c1cccc2ccc(=O)oc12` [Compound 14, N-(2-(N-(3-bromo-4-chlorophenyl)aminosulfonyl)-pyridin-4-yl)-2-oxo-2H-chromene-8-amide], for which, in data set [1], the IC50 turned out to be 195 nM. For the same compound, the “protective effect” value in data set [2] is “more obvious protective effects”. Besides, the CC50 in data set [3] is over 20 μmol[…]L^−1.
For `O=C(Nc1ccnc(S(=O)(=O)Nc2cccc3ccc(Br)cc23)c1)c1cccc2ccc(=O)oc12` [Compound 15, N-(2-(N-(7-bromonaphth-1-yl)aminosulfonyl)-pyridin-4-yl)-2-oxo-2H-chromene-8-amide], in data set [1], the IC50 was determined as 154 nM. Moreover, the “protective effect” value in data set [2] is “more obvious protective effects”. Also, the CC50 in data set [3] is listed as over 20 μmol[…]L^−1.
With `O=C(Nc1ccnc(S(=O)(=O)Nc2cc(Cl)cc3ccccc23)c1)c1cccc2ccc(=O)oc12` [Compound 16, N-(2-(N-(3-chloronaphth-1-yl)aminosulfonyl)-pyridin-4-yl)-2-oxo-2H-chromene-8-amide], the 50% inhibitory concentration (IC50) in data set [1] turned out to be 86 nM. In data set [3], this compound yielded a CC50 of over 20 μmol[…]L^−1.
`O=C(Nc1ccnc(S(=O)(=O)Nc2cccc3ncccc23)c1)c1cccc2ccc(=O)oc12` [Compound 17, N-(2-(N-(quinoline-5-yl)aminosulfonyl)-pyridin-4-yl)-2-oxo-2H-chromene-8-amide]: in data set [1], the IC50 worked out at 871 nM. The compound further came in with a CC50 in data set [3] of over 20 μmol[…]L^−1.
In data set [4], `CC(=O)O[C@H]1C(=O)[C@@]2(C)[C@H]([C@H](OC(=O)c3ccccc3)[C@]3(O)C[C@H](OC(=O)[C@H](O)[C@@H](NC(=O)c4ccccc4)c4ccccc4)C(C)=C1C3(C)C)[C@]1(OC(C)=O)CO[C@@H]1C[C@@H]2O` [Taxol, reference compound] came in with a CC50 at 48 h of 21 nM.

The values are drawn from US20240174650A1, “8-(PICOLINAMIDE) SUBSTITUTED COUMARIN COMPOUND, AND PREPARATION METHOD THEREFOR AND USE THEREOF” (LONGIVITRON (SUZHOU) BIOTECHNOLOGY CO., LTD, priority 2021, published 2024).
